Tested on: sialylation of core 1 O-linked glycans of plasma glycoproteins (T/ST ratio)
Test: Plasma T/ST ratio (T-antigen to monosialylated ST-antigen) by LC-MS/MS in treated GNE myopathy patients
Format: in vivo, human
Experimental: The quantification of the T/ST ratio was carried out using the O-glycan quantification methods disclosed in Liu et al. Mol Genet Metab 106, 442-454 (2012). Briefly, O-linked glycans from human serum or plasma total glycoproteins were released by sodium hydroxide with sodium borohydrate and desalted by ion-exchange column and then permethylated before the quantity of T-antigen and monosialyl ST-antigen was measured using LC-MS/MS method. Plasma samples from 40 normal controls were used to establish the normal range for the T/ST ratio at <0.056. A cut-off of 0.06 was used to diagnose hyposialylation of O-linked protein glycosylation in human plasma or serum.
O-glycans were released from plasma glycoproteins and prepared for analysis essentially as described by Carlson (J Biol Chem 243: 616-626, 1968; Liu et al. Mol Genet Metab 106, 442-454 (2012)), with modifications as described. An internal standard (1250 pmol raffinose in 5 μL) was added to 10 μL of plasma and 65 μl water for a final volume of 100 μL. Next, 100 μL of freshly prepared 2M […] in 0.1M sodium hydroxide was added to denature the serum proteins and release the O-glycans; the mixture was incubated at 45° C. for 16 hours to ensure complete reaction. The reaction was neutralized by drop wise addition of 1.6 mL of a 0.25M acetic acid-methanol solution, and the O-glycans were extracted in methanol. […]

Compound | T/ST ratio after sialic acid treatment (one GNE myopathy patient (NH00016), sialic acid received one month before the test, cut-off 0.06) | T/ST ratio range under ManNAc (one GNE myopathy patient (SIA79) self-administering off-label ManNAc, abnormal range 0.06 or higher)
CC(=O)N[C@@H]1C(O)C[C@](O)(C(=O)O)OC1[C@H](O)[C@H](O)CO (stereo in doubt) [sialic acid, N-acetylneuraminic acid] | 0.05 | 
CC(=O)N[C@H]1[C@@H](O)[C@H](O)[C@@H](CO)O[C@H]1O [ManNAc, N-acetyl-D-mannosamine] |  | normal range

Reference: US9341619B2, “Hyposialylation disorders” (THE UNITED STATES OF AMERICA, as representated by the …, priority 2013, dated 2016)
